Experimental data reported in patent publication US20250313546A1, “NUCLEIC ACID BINDERS” (UNIVERSITY OF STRATHCLYDE, priority 2022, published 2025).
≈ marks a conversion by molar mass, not a printed value.

Key:
[1] = tested on: Staphylococcus aureus (ATCC 43300); test: Antibacterial MIC, broth microdilution (CLSI); type: cell-based; settings: for S. aureus Selectivity Indices, Group: Alkyl Amidines and NH Pyrroles; for MIC80: Staphylococcus aureus, ATCC43300, read-out: MIC80 S. aureus
[2] = tested on: Enterococcus faecalis (ATCC 51299); test: Antibacterial MIC, broth microdilution (CLSI); type: cell-based; settings: for MIC80: Enterococcus faecalis, ATCC51299, read-out: MIC80 E. faecalis; for E. faecalis Selectivity Indices, Group: Alkyl Amidines and NH Pyrroles
[3] = tested on: Escherichia coli (ATCC 25922); test: Antibacterial MIC, broth microdilution (CLSI); type: cell-based; settings: Escherichia coli, ATCC25922; read-out: MIC80 E. coli
[4] = tested on: Human rhinovirus (HRV-14); test: Viral ToxGlo assay, Hela Ohio cells; type: cell-based; settings: M-HeLa, 72 h
[5] = tested on: human respiratory syncytial virus (RSV A2); test: Viral ToxGlo assay, Hep-2 cells; type: cell-based; settings: 72 h
Influenza (H1N1) = test: Accelerated Viral Neuraminidase Inhibition Assay (AVINA), A549 cells; type: cell-based; settings: Influenza A virus, 72 h
[6] = tested on: Genomic double stranded DNA (salmon); test: Fluorescence intercalator displacement (FID) assay, SYBR-safe probe; settings: 20 μM compound, 30° C., lower % = stronger binding
Procedure, shortened: (§1)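 Compound at 20 μM mixed with 3.76 ng/mL polyAU dsRNA or salmon genomic dsDNA and 12500-fold diluted SybrSafe in 1 mM phosphate buffer pH 7.4, then heated to 30 °C and fluorescence read. Reduction is expressed as normalised %, with nucleic acid plus probe as maximum and probe alone as minimum.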

[7] = tested on: PolyAU double stranded RNA; test: as above; settings: 20 μM compound, 30° C., lower % = stronger binding
Procedure, shortened: as §1

C. neoformans (F10025) = settings: Cryptococcus neoformans, read-out: MIC99 C. neoformans
[8] = tested on: A. fumigatus A1160 (MFIG001); settings: Aspergillus fumigatus, read-out: MIC99 A. fumigatus A1160
[9] = tested on: Rhizopus arrhizus (NEQAS12.35321); settings: read-out: MIC99 Rhizopus arrhizus
Candida auris (H.17.157) = settings: for MIC99: Candidozyma auris, read-out: MIC99 Candida auris; for C. auris Selectivity Indices, Group: Alkyl Amidines and NH Pyrroles
[10] = tested on: Candida glabrata (ACPF3309); settings: for MIC99: Nakaseomyces glabratus, read-out: MIC99 Candida glabrata; for C. glabrata Selectivity Indices, Group: Alkyl Amidines and NH Pyrroles
T. equiperdum = test: Resazurin-based (Alamar blue) drug sensitivity assay; settings: Trypanosoma equiperdum, read-out: IC50 T. equiperdum
Description: (§2) A detailed description of the procedure for evaluating activity against trypanosomes, using an Alamar Blue (resazurin) assay, is described below.
(§3) The bloodstream form (BSF) T. b. brucei s427 (see De Koning, H. P. et al., Mol. Biochem. Parasitol. 2000, 106, 181-185), T. evansi AntTat 3/3 (see Dean, S. et al., Proc. Natl. Acad. Sci. USA, 2013, 110, 14741-14746), and T. equiperdum (see Stewart, M. L. et al., Eukaryot. Cell, 2010, 9, 336-343) were cultured in HMI-9 medium (Life Technologies, Paisley, United Kingdom) supplemented with 10% heat inactivated Foetal Bovine Serum (FBS (PAA Laboratories Linz, Austria)), 14 μL/L β-mercaptoethanol (BDH, Dorset, UK), and 3.0 g/L NaHCO3 (Sigma-Aldrich) and adjusted to pH 7.4. These cell lines were maintained at 37° C. in a humidified, 5% CO2 environment.
(§4) A resazurin-based (Alamar blue) drug sensitivity assay was used to assess and compare the activity of standard trypanocides in the different cell lines investigated (see Gould, M. K. et al., Anal. Biochem., 2008, 382, 87-93). Briefly, 23 doubling dilutions of the test compound of the invention, starting at 100 μM, and a compound-free control were prepared in 100 μL medium in a 96-well white plate (Greiner Bio-one, Frickenhausen, Germany). The cells were adjusted to 2×10^4 cells/mL for T. b. brucei and T. equiperdum; 4×10^4 cells/mL for T. evansi; and 5×10^5 cells/mL for T. congolense in the appropriate medium. 100 μL of the adjusted cells was then added to the wells containing drug dilutions and incubated for 48 h under respective culture condition. Thereafter, 20 μL of 125 mg/mL resazurin sodium dye was added, and the plate was incubated for a further 24 h.

T. evansi AntTat 3/3 = test: as above; settings: read-out: IC50 T. evansi
Description: as §2, §3, §4

[11] = tested on: SARS-CoV-2 (hCoV-19/Australia/VIC01/2020); test: SARS-CoV-2 microplaque inhibition assay in Vero-E6 cells; type: cell-based
[12] = SI, IC50 (μM)/MIC80 (μM), HEK293 cytotoxicity
[13] = SI, IC50 (μM)/MIC99 (μg/mL), HEK293 cytotoxicity
[14] = SI, IC50 (μM)/MIC80 (μM), HEK293 cytotoxicity, numeric value
[15] = SI, IC50 (μM)/MIC99 (μg/mL), HEK293 cytotoxicity, numeric value

Cn1cc(NC(=O)c2ccc(/C=C/c3ccc4nonc4c3)cc2)cc1C(=O)Nc1c[nH]c(C(=O)NCCC(=N)N)c1 [IIIa3, (E)-N-(5-((3-amino-3-iminopropyl)carbamoyl)-1H-pyrrol-3-yl)-4-(4-(2-(benzo[c][1,2,5]oxadiazol-5-yl)vinyl)benzamido)-1-methyl-1H-pyrrole-2-carboxamide]
S. aureus Selectivity Indices, Group [1, 12]: B (Group B: 3 < SI <= 5)
MIC80 [1]: 5 to 25 µM (≈ 2.83 to 14.1 µg/mL)
MIC80 [2]: 5 to 25 µM (≈ 2.83 to 14.1 µg/mL)
MIC80 [3]: > 100 µM
inhibition at 20 µM [4]: 25 to 50%
inhibition at 20 µM [5]: > 50%
inhibition at 20 µM (Influenza (H1N1)): > 50%
% Normalised Fluorescence with gDNA [6]: 27%
% Normalised Fluorescence with polyAU RNA [7]: 3%
MIC99 (C. neoformans (F10025)): < 5 µg/mL
MIC99 [8]: 5 to 25 µg/mL (≈ 8.84 to 44.2 µM)
MIC99 [9]: > 50 µg/mL
MIC99 (Candida auris (H.17.157)): > 50 µg/mL
MIC99 [10]: < 5 µg/mL
C. glabrata Selectivity Indices, Group [10, 13]: B (Group B: 12 < SI <= 20)
IC50 (T. equiperdum): 10 to 100 nM
IC50 (T. evansi AntTat 3/3): 10 to 100 nM

N=C(N)CCNC(=O)c1cc(NC(=O)c2cc(NC(=O)c3ccc(/C=C/c4cnc5ccccc5c4)cc3)c[nH]2)c[nH]1 [IIIa6, (E)-N-(3-amino-3-iminopropyl)-4-(4-(4-(2-(quinolin-3-yl)vinyl)benzamido)-1H-pyrrole-2-carboxamido)-1H-pyrrole-2-carboxamide]
S. aureus Selectivity Indices, Group [1, 12]: D (D: SI > 10)
S. aureus Selectivity Index (SI) [1, 14]: 14
MIC80 [1]: < 5 µM
MIC80 [2]: < 5 µM
E. faecalis Selectivity Indices, Group [2, 12]: D (D: SI > 10)
E. faecalis Selectivity Index (SI) [2, 14]: 14
MIC80 [3]: 25 to 100 µM (≈ 14 to 56.1 µg/mL)
inhibition at 20 µM [4]: > 50%
inhibition at 20 µM [5]: > 50%
inhibition at 20 µM (Influenza (H1N1)): > 50%
% Normalised Fluorescence with gDNA [6]: 18%
% Normalised Fluorescence with polyAU RNA [7]: 29%
MIC99 (C. neoformans (F10025)): < 5 µg/mL
MIC99 [8]: 5 to 25 µg/mL (≈ 8.92 to 44.6 µM)
MIC99 [9]: 25 to 50 µg/mL (≈ 44.6 to 89.2 µM)
MIC99 (Candida auris (H.17.157)): 5 to 25 µg/mL (≈ 8.92 to 44.6 µM)
C. auris Selectivity Indices, Group (Candida auris (H.17.157); [13]): D (Group D SI > 3)
MIC99 [10]: < 5 µg/mL
C. glabrata Selectivity Indices, Group [10, 13]: D (Group D: SI > 50)
C. glabrata Selectivity Index (SI) [10, 15]: 109
IC50 (T. equiperdum): < 10 nM
IC50 (T. evansi AntTat 3/3): 10 to 100 nM

CN(C)c1ccc(/C=C/c2ccc(C(=O)Nc3c[nH]c(C(=O)Nc4c[nH]c(C(=O)NCCC(=N)N)c4)c3)cn2)cc1 [IIIa9, (E)-N-(5-((5-((3-amino-3-iminopropyl)carbamoyl)-1H-pyrrol-3-yl)carbamoyl)-1H-pyrrol-3-yl)-6-(4-(dimethylamino)styryl)nicotinamide]
S. aureus Selectivity Indices, Group [1, 12]: C (Group C: 5 < SI <= 10)
MIC80 [1]: 5 to 25 µM (≈ 2.77 to 13.8 µg/mL)
MIC80 [2]: 5 to 25 µM (≈ 2.77 to 13.8 µg/mL)
E. faecalis Selectivity Indices, Group [2, 12]: C (Group C: 5 < SI <= 10)
MIC80 [3]: 25 to 100 µM (≈ 13.8 to 55.4 µg/mL)
SARS-CoV-2 Selectivity Indices, Group ([11]; SI, IC50 (μM)/IC50 (μM), HEK293 cytotoxicity, Alkyl Amidines and NH Pyrroles): D (Group D: SI > 25)
SARS-CoV-2 Selectivity Index (SI) ([11]; SI, IC50 (μM)/IC50 (μM), HEK293 cytotoxicity, numeric value): 33
IC50 ([11]; Severe acute respiratory syndrome coronavirus 2, Vero C1008, plaque inhibition, Vero-E6 cells, read-out: IC50 SARS-CoV-2): < 2000 nM
inhibition at 20 µM [4]: 25 to 50%
inhibition at 20 µM (Influenza (H1N1)): 10 to 25%
% Normalised Fluorescence with gDNA [6]: 16%
% Normalised Fluorescence with polyAU RNA [7]: 24%
MIC99 (C. neoformans (F10025)): < 5 µg/mL
MIC99 [8]: 5 to 25 µg/mL (≈ 9.03 to 45.2 µM)
MIC99 [9]: 5 to 25 µg/mL (≈ 9.03 to 45.2 µM)
MIC99 (Candida auris (H.17.157)): 5 to 25 µg/mL (≈ 9.03 to 45.2 µM)
C. auris Selectivity Indices, Group (Candida auris (H.17.157); [13]): D (Group D SI > 3)
C. auris Selectivity Index (SI) (Candida auris (H.17.157); [15]): 6
MIC99 [10]: < 5 µg/mL
C. glabrata Selectivity Indices, Group [10, 13]: C (Group C 20 < SI <= 50)
IC50 (T. equiperdum): > 1000 nM
IC50 (T. evansi AntTat 3/3): 100 to 1000 nM

CN(C)c1ccc(/C=C/c2ccc(C(=O)Nc3c[nH]c(C(=O)Nc4c[nH]c(C(=O)NCCN5CCOCC5)c4)c3)cn2)cc1 [IIIb7, (E)-6-(4-(dimethylamino)styryl)-N-(5-((5-((2-morpholinoethyl)carbamoyl)-1H-pyrrol-3-yl)carbamoyl)-1H-pyrrol-3-yl)nicotinamide]
S. aureus Selectivity Indices, Group [1, 12]: B (Group B: 3 < SI <= 5)
MIC80 [1]: 5 to 25 µM (≈ 2.98 to 14.9 µg/mL)
MIC80 [2]: > 100 µM
MIC80 [3]: > 100 µM
inhibition at 20 µM [4]: 10 to 25%
% Normalised Fluorescence with gDNA [6]: 63%
% Normalised Fluorescence with polyAU RNA [7]: 44%
